# Test results taken from ChEMBL document CHEMBL1201862, “PubChem BioAssay data set” (2004).
# Calls of active or inactive are those of the source.
# Columns and labels:
# [1] = Counterscreen for activators of the function of SWI/SNF related, matrix associated, actin dependent regulator of chromatin, subfamily a, member 2 (SMARCA2, BRM): Luminescence-based cell-based high throughput dose response assay to identify non-selective compounds using the VP16 reporter assay.; assay type: functional
# [2] = molecular target: SWI/SNF-related matrix-associated actin-dependent regulator of chromatin subfamily A member 2 (Homo sapiens, UniProt P51531); experiment: Luminescence-based cell-based high throughput dose response assay to identify activators of the function of SWI/SNF related, matrix associated, actin dependent regulator of chromatin, subfamily a, member 2 (SMARCA2, BRM).; assay type: functional
# [3] = inhibitors of clade B AD8 Env fusion, dose response, cell-based, cherry-pick (AID 652062); assay type: functional;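 also: luciferase signal from cell-cell fusion driven by HIV-1 clade B AD8 Env; potency is for inhibitors of fusion seen as a drop in luminescence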
# Cytochrome P450 2C9 = Cytochrome P450 2C9 (Homo sapiens, UniProt P11712)
# [4] = off-target signal loss in HeLa-CEM21 co-culture – HeLa F-luc CTL cells, cherry-picked, counter-screen for HIV-1 Env fusion inhibitor project, dose response (AID 652040); assay type: functional, cell-based;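 also: potency for signal decrease marking cytotoxic or nonspecific inhibition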
# [5] = molecular target: Long-chain-fatty-acid--AMP ligase FadD28 (Mycobacterium tuberculosis, UniProt P9WQ59); experiment: Fluorescence polarization aasay to screen for inhibitors that compete for the binding of FadD28 to a bisubstrate Measured in Biochemical System Using Plate Reader - 2147-01_Inhibitor_Dose_CherryPick_Activity.; assay type: functional, Mycobacterium tuberculosis H37Rv
# Vero = experiment: cells; assay type: functional; conditions: Chlorocebus sabaeus
# [6] = molecular target: T1, Mitochondrial peptide methionine sulfoxide reductase (Bos taurus, UniProt P54149); experiment: Absorbance-based biochemical high throughput dose response assay for activators of Methionine sulfoxide reductase A (MsrA).; assay type: functional
# T1 sequence (P54149 whole entry): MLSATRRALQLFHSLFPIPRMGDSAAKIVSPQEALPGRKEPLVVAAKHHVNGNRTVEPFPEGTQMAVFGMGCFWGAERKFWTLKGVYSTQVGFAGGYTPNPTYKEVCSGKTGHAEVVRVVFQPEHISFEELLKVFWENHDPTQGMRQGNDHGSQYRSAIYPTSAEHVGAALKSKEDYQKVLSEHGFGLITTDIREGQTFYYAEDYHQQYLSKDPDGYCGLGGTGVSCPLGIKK
# [7] = molecular target: Arf-GAP with SH3 domain, ANK repeat and PH domain-containing protein 1 (Homo sapiens, UniProt Q9ULH1); assay type: functional;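 also: biochemical fluorescence polarization dose–response screen measuring inhibition of ASAP1; ASAP1 GAP domain stimulating GTP hydrolysis by truncated human ARF1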
# [8] = molecular target: T2, Calpain-2 catalytic subunit (Sus scrofa, UniProt P43367); experiment: pig calpain II inhibitor potency, dose response, biochemical, fluorogenic peptide substrate (AID 1420); assay type: functional
# T2 sequence (P43367 whole entry): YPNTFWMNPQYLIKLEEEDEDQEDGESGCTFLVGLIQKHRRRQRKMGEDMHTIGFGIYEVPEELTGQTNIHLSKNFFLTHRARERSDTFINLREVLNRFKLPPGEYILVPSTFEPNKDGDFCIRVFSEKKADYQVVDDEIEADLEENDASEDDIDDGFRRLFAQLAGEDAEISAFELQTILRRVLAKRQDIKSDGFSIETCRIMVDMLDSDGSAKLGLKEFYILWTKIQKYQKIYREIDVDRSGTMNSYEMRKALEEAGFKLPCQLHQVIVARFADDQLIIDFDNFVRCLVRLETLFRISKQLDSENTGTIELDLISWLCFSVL
# [9] = molecular target: T3, Replicative DNA helicase DnaB (Mycobacterium tuberculosis, UniProt P9WMR3); experiment: DnaB intein splicing inhibitors, dose response, biochemical, cell-free fluorescence (AID 449749); assay type: functional
# T3 sequence (P9WMR3 whole entry): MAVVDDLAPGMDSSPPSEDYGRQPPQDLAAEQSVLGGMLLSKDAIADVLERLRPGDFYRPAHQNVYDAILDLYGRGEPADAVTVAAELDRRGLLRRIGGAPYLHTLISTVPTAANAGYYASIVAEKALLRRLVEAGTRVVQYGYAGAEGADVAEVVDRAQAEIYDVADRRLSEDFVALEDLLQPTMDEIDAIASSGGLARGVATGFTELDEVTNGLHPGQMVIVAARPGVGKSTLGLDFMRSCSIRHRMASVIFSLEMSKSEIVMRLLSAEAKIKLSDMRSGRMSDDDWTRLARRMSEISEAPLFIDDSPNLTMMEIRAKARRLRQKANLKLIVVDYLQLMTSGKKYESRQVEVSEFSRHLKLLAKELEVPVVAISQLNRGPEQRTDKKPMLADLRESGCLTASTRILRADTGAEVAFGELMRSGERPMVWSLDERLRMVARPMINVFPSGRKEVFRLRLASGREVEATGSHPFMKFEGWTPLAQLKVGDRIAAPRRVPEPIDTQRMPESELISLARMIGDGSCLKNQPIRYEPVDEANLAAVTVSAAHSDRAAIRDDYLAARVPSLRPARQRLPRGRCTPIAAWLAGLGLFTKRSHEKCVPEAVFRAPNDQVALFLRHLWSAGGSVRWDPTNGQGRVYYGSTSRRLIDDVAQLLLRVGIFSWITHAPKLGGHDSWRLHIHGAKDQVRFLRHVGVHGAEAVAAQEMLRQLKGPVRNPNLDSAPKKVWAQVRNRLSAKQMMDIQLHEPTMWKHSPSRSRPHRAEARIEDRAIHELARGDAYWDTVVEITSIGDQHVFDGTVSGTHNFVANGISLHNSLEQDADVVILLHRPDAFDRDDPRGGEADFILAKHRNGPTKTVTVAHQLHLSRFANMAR
# Protein RecA = molecular target: T4, Protein RecA (Mycobacterium tuberculosis, UniProt P9WHJ3); experiment: Fluorescence Cell-Free Homogeneous Dose Retest to Identify Inhibitors of RecA-Intein Splicing Activity. [Related pubchem assays (depositor defined):AID2097, AID2223, AID489010, AID492950]; assay type: functional
# T4 sequence (P9WHJ3 whole entry): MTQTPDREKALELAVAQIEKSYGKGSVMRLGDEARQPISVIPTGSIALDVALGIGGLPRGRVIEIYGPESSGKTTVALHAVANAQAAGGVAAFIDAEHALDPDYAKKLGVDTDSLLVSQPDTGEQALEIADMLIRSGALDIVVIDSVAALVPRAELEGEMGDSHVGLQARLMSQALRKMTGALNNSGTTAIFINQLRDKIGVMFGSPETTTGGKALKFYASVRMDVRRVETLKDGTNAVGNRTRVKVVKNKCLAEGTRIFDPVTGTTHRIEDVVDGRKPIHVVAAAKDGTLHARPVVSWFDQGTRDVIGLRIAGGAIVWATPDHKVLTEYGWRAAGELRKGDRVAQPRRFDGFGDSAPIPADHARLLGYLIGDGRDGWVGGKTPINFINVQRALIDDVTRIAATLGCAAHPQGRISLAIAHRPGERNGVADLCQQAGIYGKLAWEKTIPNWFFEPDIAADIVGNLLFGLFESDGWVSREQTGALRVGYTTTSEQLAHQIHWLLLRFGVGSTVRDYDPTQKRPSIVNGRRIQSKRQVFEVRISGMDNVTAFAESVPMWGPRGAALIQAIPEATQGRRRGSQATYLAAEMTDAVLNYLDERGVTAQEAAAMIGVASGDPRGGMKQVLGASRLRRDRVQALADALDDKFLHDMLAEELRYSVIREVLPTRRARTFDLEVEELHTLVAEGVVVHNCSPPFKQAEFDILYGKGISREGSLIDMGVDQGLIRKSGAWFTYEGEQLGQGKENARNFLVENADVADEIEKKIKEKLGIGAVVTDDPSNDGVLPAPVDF
# [10] = molecular target: DNA repair protein RAD52 homolog (Homo sapiens, UniProt P43351); assay type: functional, biochemical
# Protein Wnt-3a = Protein Wnt-3a (Mus musculus, UniProt P27467); experiment: SAR analysis of small molecule antagonists of Gli-SUFU in a Wnt3a luminescent reporter assay.; assay type: functional
# Nonstructural protein 1 = Nonstructural protein 1 (Influenza A virus, UniProt Q194T2); assay type: functional, Influenza A virus (A/California/07/2009(H1N1))
# [11] = molecular target: Histone-lysine N-methyltransferase NSD2 (Homo sapiens, UniProt O96028); assay type: biochemical
# [12] = HEK293T cytotoxicity, dose response, cytotoxicity control for miR-122 modulator project, cell-based, activator set, cherry-pick (AID 720690); assay type: functional;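 also: HEK293T human cells scored for general mammalian cytotoxicity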
# [13] = molecular target: T5, RNA-binding protein pos-1 (Caenorhabditis elegans, UniProt G5EF15); experiment: inhibitors of POS-1/mex-3 RNA binding, dose response, biochemical, fluorescence polarization (AID 1964);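 also: purified POS-1 fused to maltose binding protein made in E. coli; potency of compounds blocking POS-1 binding to fluorescent RNA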
# T5 sequence (G5EF15 whole entry): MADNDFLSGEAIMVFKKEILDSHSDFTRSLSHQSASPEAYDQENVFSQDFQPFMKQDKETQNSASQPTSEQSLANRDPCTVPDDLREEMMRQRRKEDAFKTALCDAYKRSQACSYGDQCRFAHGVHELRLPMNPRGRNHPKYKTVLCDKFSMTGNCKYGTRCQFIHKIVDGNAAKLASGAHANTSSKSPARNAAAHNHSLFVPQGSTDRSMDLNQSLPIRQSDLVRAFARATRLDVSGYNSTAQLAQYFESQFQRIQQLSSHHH
# [14] = molecular target: T6, Zinc finger protein mex-5 (Caenorhabditis elegans, UniProt Q9XUB2); experiment: MEX-5/TCR-2 RNA interaction inhibitors, dose response, biochemical, C. elegans, fluorescence polarization (AID 1960)
# T6 sequence (Q9XUB2 whole entry): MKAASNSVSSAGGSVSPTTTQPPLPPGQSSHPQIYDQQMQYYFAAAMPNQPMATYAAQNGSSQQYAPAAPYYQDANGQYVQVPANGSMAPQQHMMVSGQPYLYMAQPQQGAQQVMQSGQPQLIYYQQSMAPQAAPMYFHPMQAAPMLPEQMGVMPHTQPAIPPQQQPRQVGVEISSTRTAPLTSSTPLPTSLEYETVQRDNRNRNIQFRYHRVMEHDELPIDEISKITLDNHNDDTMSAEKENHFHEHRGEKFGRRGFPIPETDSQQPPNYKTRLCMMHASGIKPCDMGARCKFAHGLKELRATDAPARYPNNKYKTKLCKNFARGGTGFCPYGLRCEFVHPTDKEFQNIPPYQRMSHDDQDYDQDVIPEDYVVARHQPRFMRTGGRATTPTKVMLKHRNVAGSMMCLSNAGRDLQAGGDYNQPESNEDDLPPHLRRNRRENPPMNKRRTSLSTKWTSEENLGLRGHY
# [15] = molecular target: T7, Sentrin-specific protease 1 (Homo sapiens, UniProt Q9P0U3); experiment: Dose response confirmation of small molecule inhibitors of the catalytic domain of the SUMO protease, SENP1 in a FRET assay.; assay type: functional; conditions: read-out: IC50_Mean
# T7 sequence (Q9P0U3 whole entry): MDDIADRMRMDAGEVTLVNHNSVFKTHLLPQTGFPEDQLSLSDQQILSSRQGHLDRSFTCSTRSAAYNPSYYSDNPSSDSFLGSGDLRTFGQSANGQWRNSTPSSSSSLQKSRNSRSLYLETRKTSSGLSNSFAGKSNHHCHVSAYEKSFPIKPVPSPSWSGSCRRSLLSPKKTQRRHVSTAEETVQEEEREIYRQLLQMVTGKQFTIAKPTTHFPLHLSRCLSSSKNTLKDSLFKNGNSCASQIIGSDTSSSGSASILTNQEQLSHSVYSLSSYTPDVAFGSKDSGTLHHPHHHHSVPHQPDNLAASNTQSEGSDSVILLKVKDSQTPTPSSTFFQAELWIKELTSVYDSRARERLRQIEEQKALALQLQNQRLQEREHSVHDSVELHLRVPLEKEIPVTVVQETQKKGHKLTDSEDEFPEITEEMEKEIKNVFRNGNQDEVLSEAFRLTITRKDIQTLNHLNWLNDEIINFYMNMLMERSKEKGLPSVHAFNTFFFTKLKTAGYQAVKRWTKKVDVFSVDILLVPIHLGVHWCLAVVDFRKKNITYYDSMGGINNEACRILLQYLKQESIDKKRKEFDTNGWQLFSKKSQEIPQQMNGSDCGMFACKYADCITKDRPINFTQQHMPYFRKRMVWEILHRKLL
# [16] = molecular target: T7, Sentrin-specific protease 1; experiment: potency of human SENP1 inhibitors, dose response, biochemical, kinetic FRET (AID 651697); assay type: functional; conditions: read-out: IC50_Mean
# Sequence of Arf-GAP with SH3 domain, ANK repeat and PH domain-containing protein 1 (Q9ULH1 whole entry, the tested form may be a part): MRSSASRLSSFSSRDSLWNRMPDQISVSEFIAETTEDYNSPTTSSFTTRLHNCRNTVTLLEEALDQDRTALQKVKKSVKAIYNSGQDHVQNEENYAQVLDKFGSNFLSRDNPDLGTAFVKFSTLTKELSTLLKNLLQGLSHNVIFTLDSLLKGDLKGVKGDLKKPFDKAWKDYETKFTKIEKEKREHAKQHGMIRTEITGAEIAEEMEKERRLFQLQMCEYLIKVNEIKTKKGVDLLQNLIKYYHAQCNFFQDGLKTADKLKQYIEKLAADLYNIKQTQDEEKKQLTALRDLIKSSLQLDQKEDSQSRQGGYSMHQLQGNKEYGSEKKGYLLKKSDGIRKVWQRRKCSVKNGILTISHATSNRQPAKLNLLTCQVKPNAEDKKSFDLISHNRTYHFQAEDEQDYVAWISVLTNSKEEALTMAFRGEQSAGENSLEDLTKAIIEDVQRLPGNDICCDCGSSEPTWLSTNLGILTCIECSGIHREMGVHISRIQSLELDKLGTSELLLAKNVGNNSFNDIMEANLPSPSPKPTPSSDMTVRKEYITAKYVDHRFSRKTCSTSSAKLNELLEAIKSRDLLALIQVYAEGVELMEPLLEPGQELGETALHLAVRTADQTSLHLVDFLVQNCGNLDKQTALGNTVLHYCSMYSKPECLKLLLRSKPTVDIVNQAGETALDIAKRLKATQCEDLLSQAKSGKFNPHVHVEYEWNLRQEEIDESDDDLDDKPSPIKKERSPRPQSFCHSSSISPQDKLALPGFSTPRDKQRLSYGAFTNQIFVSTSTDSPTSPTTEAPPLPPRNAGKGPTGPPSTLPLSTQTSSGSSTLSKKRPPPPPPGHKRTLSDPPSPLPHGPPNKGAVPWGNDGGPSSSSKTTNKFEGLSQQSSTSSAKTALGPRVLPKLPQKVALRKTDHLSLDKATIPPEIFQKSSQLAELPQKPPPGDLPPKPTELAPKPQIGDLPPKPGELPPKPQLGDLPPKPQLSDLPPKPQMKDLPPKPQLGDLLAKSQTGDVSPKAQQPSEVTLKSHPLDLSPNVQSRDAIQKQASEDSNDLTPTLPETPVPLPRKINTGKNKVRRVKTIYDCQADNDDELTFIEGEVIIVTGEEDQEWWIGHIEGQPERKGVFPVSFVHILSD
# Sequence of Protein Wnt-3a (P27467 whole entry): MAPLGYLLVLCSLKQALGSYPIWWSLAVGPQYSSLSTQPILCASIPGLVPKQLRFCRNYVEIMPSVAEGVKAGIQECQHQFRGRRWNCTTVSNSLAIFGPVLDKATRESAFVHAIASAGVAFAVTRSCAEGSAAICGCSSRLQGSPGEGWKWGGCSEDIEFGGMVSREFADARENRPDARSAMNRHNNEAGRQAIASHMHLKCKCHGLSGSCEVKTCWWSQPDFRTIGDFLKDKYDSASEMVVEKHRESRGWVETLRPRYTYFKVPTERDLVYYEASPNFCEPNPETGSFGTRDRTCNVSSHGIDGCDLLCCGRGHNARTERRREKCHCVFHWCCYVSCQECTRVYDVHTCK
# Sequence of SWI/SNF-related matrix-associated actin-dependent regulator of chromatin subfamily A member 2 (P51531 whole entry, the tested form may be a part): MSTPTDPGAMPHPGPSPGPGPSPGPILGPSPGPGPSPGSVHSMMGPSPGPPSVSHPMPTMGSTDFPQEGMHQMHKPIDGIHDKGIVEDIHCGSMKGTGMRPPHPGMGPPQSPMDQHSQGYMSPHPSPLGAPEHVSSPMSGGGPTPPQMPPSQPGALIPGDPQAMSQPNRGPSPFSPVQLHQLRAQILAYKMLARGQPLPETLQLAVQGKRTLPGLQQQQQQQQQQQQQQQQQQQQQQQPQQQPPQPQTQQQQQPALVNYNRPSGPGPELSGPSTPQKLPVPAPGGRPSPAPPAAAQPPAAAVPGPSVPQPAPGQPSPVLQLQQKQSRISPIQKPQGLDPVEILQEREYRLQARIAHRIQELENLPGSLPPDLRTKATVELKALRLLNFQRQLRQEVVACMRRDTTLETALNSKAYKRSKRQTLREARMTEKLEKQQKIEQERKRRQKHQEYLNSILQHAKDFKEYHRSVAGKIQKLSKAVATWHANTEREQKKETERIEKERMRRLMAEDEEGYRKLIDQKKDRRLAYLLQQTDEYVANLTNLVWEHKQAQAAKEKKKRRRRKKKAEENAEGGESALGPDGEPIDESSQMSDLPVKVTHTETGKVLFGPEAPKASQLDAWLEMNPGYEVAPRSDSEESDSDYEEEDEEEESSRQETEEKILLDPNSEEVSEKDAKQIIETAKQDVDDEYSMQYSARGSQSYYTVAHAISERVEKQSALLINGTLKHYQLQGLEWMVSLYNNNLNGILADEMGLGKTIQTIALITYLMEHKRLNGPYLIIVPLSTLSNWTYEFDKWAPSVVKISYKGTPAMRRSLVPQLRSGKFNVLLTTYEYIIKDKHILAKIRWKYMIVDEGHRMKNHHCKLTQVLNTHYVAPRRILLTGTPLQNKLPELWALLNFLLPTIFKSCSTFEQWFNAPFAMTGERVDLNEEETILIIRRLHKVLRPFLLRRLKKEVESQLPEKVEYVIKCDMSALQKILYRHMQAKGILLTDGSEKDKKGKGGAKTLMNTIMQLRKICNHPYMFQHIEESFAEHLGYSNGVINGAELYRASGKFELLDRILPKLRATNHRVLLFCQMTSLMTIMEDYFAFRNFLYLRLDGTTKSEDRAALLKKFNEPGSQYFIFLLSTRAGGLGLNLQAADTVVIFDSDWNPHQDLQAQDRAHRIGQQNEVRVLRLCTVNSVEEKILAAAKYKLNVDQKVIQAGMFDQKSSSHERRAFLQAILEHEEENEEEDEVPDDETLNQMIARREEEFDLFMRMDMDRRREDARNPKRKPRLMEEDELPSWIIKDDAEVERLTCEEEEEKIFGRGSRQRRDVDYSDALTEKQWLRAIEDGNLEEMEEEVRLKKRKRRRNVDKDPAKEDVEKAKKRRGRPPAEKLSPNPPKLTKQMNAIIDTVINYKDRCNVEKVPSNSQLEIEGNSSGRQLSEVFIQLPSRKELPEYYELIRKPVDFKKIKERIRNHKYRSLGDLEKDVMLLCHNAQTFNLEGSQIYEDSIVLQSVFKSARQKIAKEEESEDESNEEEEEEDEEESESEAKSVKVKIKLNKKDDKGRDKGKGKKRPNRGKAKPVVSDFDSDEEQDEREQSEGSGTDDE
# Sequence of Long-chain-fatty-acid--AMP ligase FadD28 (P9WQ59 whole entry): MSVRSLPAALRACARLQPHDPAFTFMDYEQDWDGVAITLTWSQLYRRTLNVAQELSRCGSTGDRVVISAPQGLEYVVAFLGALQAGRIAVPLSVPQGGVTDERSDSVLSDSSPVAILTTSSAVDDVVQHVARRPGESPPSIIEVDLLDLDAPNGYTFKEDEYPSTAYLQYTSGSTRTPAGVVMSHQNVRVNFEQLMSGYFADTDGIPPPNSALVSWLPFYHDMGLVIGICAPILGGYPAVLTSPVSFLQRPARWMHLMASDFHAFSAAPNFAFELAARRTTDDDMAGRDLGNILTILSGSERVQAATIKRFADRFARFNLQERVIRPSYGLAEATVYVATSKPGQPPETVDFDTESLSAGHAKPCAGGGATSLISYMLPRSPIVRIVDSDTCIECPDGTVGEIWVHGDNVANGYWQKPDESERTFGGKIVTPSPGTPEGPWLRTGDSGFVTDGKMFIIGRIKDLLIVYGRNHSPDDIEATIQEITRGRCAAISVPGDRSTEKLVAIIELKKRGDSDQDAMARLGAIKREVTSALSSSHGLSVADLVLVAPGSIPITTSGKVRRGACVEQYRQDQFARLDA
# Sequence of Nonstructural protein 1 (Q194T2 whole entry): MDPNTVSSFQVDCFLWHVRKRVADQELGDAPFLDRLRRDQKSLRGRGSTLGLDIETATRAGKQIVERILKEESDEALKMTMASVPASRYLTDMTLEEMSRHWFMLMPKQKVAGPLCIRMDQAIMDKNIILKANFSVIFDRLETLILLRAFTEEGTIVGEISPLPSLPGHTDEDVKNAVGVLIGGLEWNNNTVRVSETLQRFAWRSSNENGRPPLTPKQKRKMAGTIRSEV
# Sequence of DNA repair protein RAD52 homolog (P43351 whole entry): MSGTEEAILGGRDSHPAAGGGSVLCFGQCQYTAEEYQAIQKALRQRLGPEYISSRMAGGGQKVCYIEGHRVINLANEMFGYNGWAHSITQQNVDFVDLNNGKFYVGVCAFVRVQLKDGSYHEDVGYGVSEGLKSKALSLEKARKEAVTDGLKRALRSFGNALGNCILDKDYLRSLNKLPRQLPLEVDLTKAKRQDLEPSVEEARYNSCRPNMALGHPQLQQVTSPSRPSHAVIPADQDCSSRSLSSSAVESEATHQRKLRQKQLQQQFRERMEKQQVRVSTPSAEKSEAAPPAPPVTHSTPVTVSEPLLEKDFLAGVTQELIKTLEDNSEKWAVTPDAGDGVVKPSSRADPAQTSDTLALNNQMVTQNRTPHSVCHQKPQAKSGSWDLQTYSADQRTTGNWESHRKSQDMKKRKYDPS
# Sequence of Cytochrome P450 2C9 (P11712 whole entry, the tested form may be a part): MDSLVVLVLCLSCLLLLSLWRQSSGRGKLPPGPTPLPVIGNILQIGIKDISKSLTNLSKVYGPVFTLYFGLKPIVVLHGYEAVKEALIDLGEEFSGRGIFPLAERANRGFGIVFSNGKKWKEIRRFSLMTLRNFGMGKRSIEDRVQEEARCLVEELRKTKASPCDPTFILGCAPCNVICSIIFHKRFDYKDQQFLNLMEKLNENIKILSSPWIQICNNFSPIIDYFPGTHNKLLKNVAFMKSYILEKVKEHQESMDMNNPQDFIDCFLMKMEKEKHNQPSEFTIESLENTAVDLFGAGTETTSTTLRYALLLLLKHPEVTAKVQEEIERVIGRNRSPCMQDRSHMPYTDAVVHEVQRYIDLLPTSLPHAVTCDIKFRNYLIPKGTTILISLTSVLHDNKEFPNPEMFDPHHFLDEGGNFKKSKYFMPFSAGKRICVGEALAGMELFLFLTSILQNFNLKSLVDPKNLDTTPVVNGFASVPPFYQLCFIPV
smiles,measurement,setting,value
C=C1C(=O)[C@]23C[C@H]1CC[C@H]2[C@]1(C)[C@@H](O)CC[C@@](C)(C(=O)O)[C@H]1C[C@@H]3O [GEOPYXIN A],EC50,[1],> 91.1 µM (inactive)
same,EC50,[2],> 91.1 µM (inactive)
O=C(Nc1ccc(S(=O)(=O)N2CCCC2)cc1)c1ccc(CN2CCOCC2)cc1,AC50,[3],6.7 µM (active)
same,AC50,Cytochrome P450 2C9,10 µM (inconclusive)
same,AC50,[4],> 70 µM (inactive)
Cc1ccc(N=C(S)N(C)Cc2cn(C)c3ccccc23)cc1,AC50,[5],78.8 µM (active)
O=C(Nc1cccc([N+](=O)[O-])c1)c1ccc([N+](=O)[O-])o1,CC50,Vero,12 µM (active)
same,EC50,[6],> 104 µM (inactive)
same,EC50,[1],> 91.2 µM (inactive)
same,EC50,[2],> 91.2 µM (inactive)
COc1cc2sc3ccc(C#Cc4ccccn4)cc3c(=O)c2cc1OC,IC50,[7],22.9 µM (inactive)
O=C(Nc1ccc2oc(=O)ccc2c1)c1ccc(-c2ccc(Cl)cc2)o1,IC50,[8],18.2 µM (not active)
same,IC50,[7],9.51 µM (active)
Nc1ccc2[nH]cnc2c1,AC50,[9],2.92 µM (active)
same,EC50,Protein RecA,23.6 µM (active)
same,AC50,[10],6.22 µM (active)
Cc1ccc(C(=O)Nc2cc(N3CCCCC3)ncn2)cc1,IC50,Protein Wnt-3a,> 21.8 µM (inactive)
COC1=C(Nc2ccc(OC)cc2)C(=O)c2ccccc2C1=O,IC50,Nonstructural protein 1,9.3 µM (active)
same,AC50,[11],8.98 µM (active)
COc1ccc(CN(C)C[C@@H]2OCCCC[C@H](C)Oc3ccc(NC(=O)Nc4ccc(C(F)(F)F)cc4)cc3C(=O)N([C@H](C)CO)C[C@H]2C)cc1,AC50,[12],16.6 µM (active)
COc1cc(OC)cc(C(=O)Nc2cc(N3CCCCC3)ncn2)c1,IC50,Protein Wnt-3a,> 21.8 µM (inactive)
COc1ccc2nc3ccccc3nc2c1NC(=O)c1ccc(Br)cc1,EC50,[13],6.41 µM (active)
same,EC50,[14],6.66 µM (inconclusive)
same,IC50,[15],9.47 µM (active)
same,IC50,[16],10 µM (active)
Nc1nnc(SCCCOc2ccc(F)cc2)s1,AC50,[5],46.6 µM (active)
